According to patent publication US6875759B1, “Substituted guanidines and the use thereof” (Kadmus Pharmaceuticals, priority 1999, dated 2005):
“Also recorded” adds a separate entry of the source. Read-outs that look alike come from different tables or passages of the source.

Tests used:
[1] = tested on: hormone-independent prostate cancer cell line DU145; assay: In vitro cytotoxicity, MTS (CellTiter 96 Aqueous Proliferation Assay), prostate cancer cells; type: cell-based, human
Method: FIG. 1 is a graph which compares the effects of the compound of Example 8 on normal human endothelial cells (AH-9) and human prostate cancer cells (DU145). Cells were exposed to the compound for seven days at the concentrations indicated. Cytotoxicity was assessed using the MTS assay.
In these experiments, cells were seeded at 400 cells per well 24 hours prior to addition of the test compound. Cells were grown at 37° C. in a humidified atmosphere of 95% air, 5% CO2 for 7 days with daily media changes. Cytotoxicity was assessed using the CellTiter 96 Aqueous Proliferation Assay (Promega, Madison, Wis.).
In a separate experiment (FIG. 1), normal human endothelial cells (AH-9) and human prostate cancer cells (DU145) were exposed to increasing concentrations of the compound of Example 8 for seven days.

caspase-3 (CPP-32) = assay: Caspase-3 activation, western blot of cytosolic fractions; type: cell-based, human; details: breast cancer cells (HS578-T); 25 μM; 0-240 minutes
Method: FIG. 6 is an immunoblot illustrating the activation of caspase 3 in human breast cancer cells (HS578-T) exposed to 25 μM of the compound of Example 8. Cells were exposed to the compound for 0, 30, 60, 90, 150, and 240 minutes of treatment with peak activity occurring 90 minutes after drug addition.
When cells are induced to undergo apoptosis the cell death effector, caspase-3 (CPP-32), is cleaved and activated by proteolytic enzymes.

[2] = tested on: DU145 prostate carcinoma xenografts; assay: Anti-tumor activity in athymic mice bearing DU145 prostate carcinoma; type: in vivo, mouse; details: male nude mice; 12.5 mg/kg/d i.p. daily for two weeks; FIG. 3; 12.5 mg/kg/day
Method: FIG. 3 is a graph showing the effect of the compound of Example 8, at a dose of zero mg/kg (filled circles) and at a dose of 12.5 mg/kg (open circles), on human prostate cancer xenographs in BALB/C/NU mice.
DU145 tumor cells were injected subcutaneously into the flank of male nude mice (day 0). Palpable tumors develop within 14 days at which time the animals were treated for two weeks with daily intraperitoneal injections of either the compound of Example 8 or the control vehicle. Tumors were measured every two days and volume of tumor was calculated using the formula: Tumor volume=length×[…] At the end of the study, tumors in control mice had nearly tripled in size. […] Mechanism of Action

[3] = tested on: human pancreatic cancer (HS766T) cells; type: in vivo; details: daily i.p. for five days
Excerpt: FIG. 2B is a bar graph which depicts the effect of the compound of Example 8 on human pancreatic cancer in BDF/1 mice using the sub-renal capsule assay.
Human cancer cells can be grown in the sub-renal capsule of immuno-competent mice where, for a limited period of time, they escape detection by the mouse's immune system. Thus, the sub-renal capsule assay provides a convenient system to study the effect of drugs on the growth of tumor cells in vivo (Bogden, A. E., et al., Exp. Cell Biol. 47:281 (1979)). Briefly, female BDF mice weighing 18-20g were anesthetized, the left kidney exteriorized and a small nick was made in the kidney capsule for implantation of tumor cells. Approximately 1×10^6 human prostate (DU14) or pancreatic cancer (HS766T) cells were prepared as a fibrinogen-jelled pellet (Stratton, J. A., et al., Gynecol. Oncol. 19:336 (1984); Stratton, J. A., et al., Gynecol. Oncol. 30:416 (1988)) and implanted beneath the renal capsule. […] One day after the final injection, the animals were killed and the tumor volume was measured. Tumor growth was determined by subtracting the initial size of the implant from the size of the implant size following treatment (Stratton, J. A., et al., Gynecol Oncol. 19:336 (1984); Stratton, J. A., et al., Gynecol. Oncol. 30:416 (1988)).

[4] = tested on: human breast (HS578-T) cancer cells; assay: Mitochondrial membrane depolarization, JC-1 flow cytometry, breast cancer cells; type: cell-based; details: 25 μM, five hours following drug exposure
Method: FIGS. 5A-5C illustrate the effects of the compound of Example 8 on human breast cancer cells (HS578-T). Mitochondrial membrane depolarization was assessed by flow cytometry as measured by the fluorescence of cation, JC-1. Cells were exposed to 25 μM of the compound and fluorescence measured at: 0 hours (FIG. 5A), 2 hours (FIG. 5B) and 5 hours (FIG. 5C).
Mitochondrial membrane depolarization is an early event in apoptosis. […] These early changes in mitochondrial function can be detected using a fluorescent cation, JC-1, that emits a red color when sequestered in the mitochondria of healthy cells, or a green color when localized to the cytoplasm.
Human breast (HS578-T) and prostate (DU145) cancer cells were exposed to 25 μM of the compound of Example 8 for varying lengths of times. Both cell lines lost the capacity to sequester JC-1 in the mitochondrial compartment as indicated by a time-dependent increase in green vs. red fluorescence (FIGS. 5A-5F). In an attempt to better quantitate the results of these experiments, the scans were divided into quadrants. At time 0, greater than 90% of the dye was localized in the mitochondria in both breast and prostate cancer cells. By five hours following drug exposure, the mitochondria from the prostate and breast cells contained only 33% and 22% of the dye, respectively.

`Cc1ccc(N=C(Nc2ccc(C)cc2)N2CCN(C/C=C/c3ccccc3)CC2)cc1` [Example 8, 1-[(N,N′-Di-p-tolyl)amidino]-(trans-1′-cinnamyl)piperizine] was tested, and the EC50 ([1]; 7 days exposure, MTS, dose causing death to 50% of cells, read-out: Cell Survival ED 50 Prostate) was 1300 nM, the EC50 ([1]; separate experiment (FIG. 1), seven days, read-out: EC50 cytotoxic activity) was 3400 nM and the “processed (activated) caspase-3 (in words)” value (caspase-3 (CPP-32)) was “time-dependent increase in processed caspase-3”. For the same compound, the “tumor growth in xenograft (in words)” value [2] was “active; also recorded: failed to grow”, the “inhibition of tumor growth” value ([3]; pancreatic cancer cell line in mouse sub-renal capsule) was “greater than 95%” and the “effect on tumor growth (in words)” value ([3]; pancreatic implant, FIG. 2B) was “dose-dependent and highly significant inhibition of tumor growth”. For the same compound, the “JC-1 dye contained in mitochondria” value [4] was 22%.
